Legend:
[1] = system: A549 (human non-small-cell lung cancer); assay: MTT cytotoxicity assay, A549; assay type: cell-based; details: Homo sapiens, A549, 72 h treatment, read-out: Half Maximal Inhibitory Concentration (IC50) A549
Description: (§1) The cytotoxicity of hederagenin derivatives in vitro was evaluated on three tumor cell lines (A549: human non-small-cell lung cancer; MCF-7: human mammary cancer; HepG2: human hepatocellular carcinoma) using the 3-(4,5-dimethylthiazol-2-yl)-2,5-diphenyltetrazolium bromide (MTT) assay. In addition, their toxicity evaluations were tested on H9c2 (murine heart myoblast) and MDCK (Madin–Darby canine kidney) cells. MCF-7, A549, HepG2, H9c2, and MDCK cells were obtained from the Chinese Academy of Medical Sciences and Peking Union Medical College. All of the cell lines were maintained in Dulbecco’s modified Eagle medium (DMEM) supplemented with 1% (v/v) penicillin/streptomycin and 10% (v/v) fetal bovine serum (FBS; Thermo Technologies, New York, NY, USA) under a humidified atmosphere containing 5% CO2 at 37 °C. The stock solutions of He derivatives were dissolved in dimethyl sulfoxide (DMSO; Sigma, St. Louis, MO, USA) and added at various concentrations to the cell culture. Cellular morphologies were observed using an inverted fluorescence microscope (Olympus IX71, Tokyo, Japan), a plate reader (BIORAD 550 spectrophotometer, Bio-rad Life Science Development Ltd., Beijing, China), and a Canton 2 flow cytometer (BD, New York, NY, USA). The antitumor activity of these compounds were evaluated on MCF-7, A549, HepG2, MDCK, and H9c2 cell lines using the MTT assay. Cells at a density of 3 × 10^3 cells/well were plated in a 96-multiwell plate in DMEM containing 10% FBS for 24 h at 37 °C with 5% CO2. Then, cells were treated for 72 h with the required concentrations (3.125, 6.25, 12.5, 25, or 50 μM) of the compounds and reference drugs (He and DDP) dissolved with the vehicle DMSO. After that, the culture substrate was replaced with 200 μL of DMEM containing 20 μL of MTT solution at 5 mg/mL and incubated for 4 h. The supernatant was removed and the dissolved formazans precipitated with 120 μL of DMSO. Wells without drugs were used as blanks. A plate reader was used to determine the absorbance at 490 nm. The above steps were repeated three times. The IC50 values were defined as the concentration of the compound which gave 50% growth inhibition, and they were calculated using Graph Pad Prism 5. The inhibition rate was calculated using the following formula, where OD is the optical density:% inhibition = 1 − (Sample group OD/Control group OD) × 100%. (1)

[2] = system: MCF-7 (human mammary cancer); assay: MTT cytotoxicity assay, MCF-7; assay type: cell-based; details: Homo sapiens, MCF7, 72 h treatment, read-out: Half Maximal Inhibitory Concentration (IC50) MCF-7
Description: as §1

[3] = system: HepG2 (human hepatocellular carcinoma); assay: MTT cytotoxicity assay, HepG2; assay type: cell-based; details: Homo sapiens, HepG2; MTT, 72 h treatment; read-out: Half Maximal Inhibitory Concentration (IC50) HepG2
Description: as §1

[4] = system: MDCK (Madin–Darby canine kidney) cells; assay: MTT toxicity evaluation, MDCK; assay type: cell-based; details: Canis lupus familiaris, MDCK, 72 h treatment, non-tumor cells, read-out: Half Maximal Inhibitory Concentration (IC50) MDCK
Description: as §1

[5] = system: H9c2 (murine heart myoblast); assay: MTT toxicity evaluation, H9c2; assay type: cell-based; details: H9c2, 72 h treatment, non-tumor cells, read-out: Half Maximal Inhibitory Concentration (IC50) H9c2
Description: as §1

Row | SMILES | IC50 [1] | IC50 [2] | IC50 [3] | IC50 [4] | IC50 [5] | melting point
1 | Cc1ncc(C(=O)OC[C@@]2(C)C3CC[C@]4(C)C(CC=C5C6CC(C)(C)CC[C@]6(C(=O)OCCCCCl)CC[C@]54C)[C@@]3(C)CC[C@@H]2O)nc1C (stereo partly drawn) [Compound 25, ((3S,4R,6aR,6bS,8aS,14bR)-8a-((4-Chlorobutoxy)carbonyl)-3-hydroxy-4,6a,6b,11,11,14b-hexamethyl-1,2,3,4,4a,5,6,6a,6b,7,8,8a,9,10,11,12,12a,14,14a,14b-icosahydropicen-4-yl)methyl 5,6-dimethylpyrazine-2-carboxylate] | > 30 µM | 15.6 ± 1.41 µM | 6.42 ± 0.24 µM | > 30 µM | > 30 µM | 123.6 °C
2 | Cc1nc(C)c(C(=O)OC[C@@]2(C)C3CC[C@]4(C)C(CC=C5C6CC(C)(C)CC[C@]6(C(=O)OCCCCCl)CC[C@]54C)[C@@]3(C)CC[C@@H]2O)nc1C (stereo partly drawn) [Compound 26, ((3S,4R,6aR,6bS,8aS,14bR)-8a-((4-Chlorobutoxy)carbonyl)-3-hydroxy-4,6a,6b,11,11,14b-hexamethyl-1,2,3,4,4a,5,6,6a,6b,7,8,8a,9,10,11,12,12a,14,14a,14b-icosahydropicen-4-yl)methyl 3,5,6-trimethylpyrazine-2-carboxylate] | > 30 µM | 18.3 ± 1.16 µM | 7.15 ± 0.85 µM | > 30 µM | > 30 µM | 168.1 °C

From paper PMC6213900, “Design, Synthesis, and Cytotoxic Analysis of Novel Hederagenin–Pyrazine Derivatives Based on Partial Least Squares Discriminant Analysis” (International Journal of Molecular Sciences, 2018)
